Columns and labels:
p38 MAPK = experiment: qRT-PCR gene expression of p38 in NHEM after 10 days of treatment; assay type: cell-based, human; details: FIG. 3B
Description: (§1) The efficacy of acetyl trifluoromethylphenyl valylglycine to modulate key gene markers in the inflammatory pathway as it relates to post inflammatory hyperpigmentation conditions was evaluated. Specifically, four well plates were seeded with a single cell culture of normal human epidermal melanocyte (NHEM), and grown in a culture medium (namely, culture medium no. M254500, obtained from ThermoFisher™) and supplemented with Gibco™ human melanocyte growth supplement (namely, Human Melanocyte Growth Supplement-2 no. S0165, obtained from ThermoFisher™) at a density of 10,000 cells/cm^2 for 3 to 4 days.
(§2) The culture medium was then replaced by culture mediums containing different treatments. Specifically, the cell cultures were treated with 10 μL of one of Compositions C-E once a day for ten days (except weekends). After 10 days, the cells were trypsinized and centrifuged at 180×gravity for 7 minutes followed by RNA isolation using a QIAshredder cell lysate homogenizer no. […] The RNA was then quantified using the NanoDrop Spectrophotometer.
(§3) After RNA isolation was completed, samples of 1 μg of RNA from each cell culture was used for cDNA reactions for reverse transcription. […] The ΔΔCt values were then determined for each biological replicate by normalizing to the appropriate untreated control average ΔCt value. The ΔΔCt values were then used to calculate relative quantification (RQ) values.

[1] = tested on: tri-culture model (Normal Human Epidermal Melanocytes, Normal Human Epidermal Keratinocytes, and Normal Human Dermal Fibroblast); experiment: Melanin synthesis inhibition in tri-culture model; assay type: cell-based; details: 100 μM, tri-culture model (K/M/F), once a day for 10 days; FIG. 5
Description: (§4) Tri-culture models, co-culture models, and single cell culture models were treated with a composition containing acetyl trifluoromethylphenyl valylglycine to assess the effects on different skin cells. Specifically, the three cultures for each of the tri-culture models (Normal Human Epidermal Melanocytes, Normal Human Epidermal Keratinocytes, and Normal Human Dermal Fibroblast), co-culture models (Normal Human Epidermal Melanocytes and Normal Human Epidermal Keratinocytes), and single cell culture models (Normal Human Epidermal Melanocytes) were grown for four days. The cultures were then treated once a day for 10 days with a composition containing 10% DMSO, water, and lipoic acid (Composition G) in an amount to deposit […] to the cell culture models, a composition containing 10% DMSO, water, and acetyl trifluoromethylphenyl valylglycine (Composition H) in an amount to deposit […] to the cell culture models, or a composition containing 10% DMSO, water, and acetyl trifluoromethylphenyl valylglycine (Composition I) in an amount to deposit […] to the cell culture models. The media for the cultures was changed each day over the ten-day period.
(§5) After the 10 days, the cells of the culture were lysed and the melanin content was measured using a procedure and equipment similar to that described in Example 2. […]

COX-2 = experiment: qRT-PCR gene expression of COX-2 in NHEM after 10 days of treatment; assay type: cell-based, human; details: FIG. 3A
Description: as §1, §2, §3

[2] = tested on: human primary melanocytes; experiment: Melanin content of human primary melanocyte cultures treated for ten days, with or without prostaglandin E2; assay type: cell-based; details: FIGS. 1 and 2
Description: Six cultures of human primary melanocytes were grown for four days. Thereafter, the cultures were treated with 10 μL of one of Compositions A-E each day for ten days. Composition A contained 0.005 wt. % of acetyl trifluoromethylphenyl valylglycine, 2 wt. % ethanol, and the remainder being water. Composition B contained 0.05 wt. % of acetyl trifluoromethylphenyl valylglycine, 2 wt. % ethanol, and the remainder being water. Composition C contained 30 nM of prostaglandin E2, 2 wt. % ethanol, and the remainder being water. Composition D contained 0.005 wt. % of acetyl trifluoromethylphenyl valylglycine, 30 nM of prostaglandin E2, 2 wt. % ethanol, and the remainder being water. Composition E contained 0.05 wt. % of acetyl trifluoromethylphenyl valylglycine, 30 nM of prostaglandin E2, 2 wt. % ethanol, and the remainder being water. All weight percentages for Compositions A-E were based on the total weight of the respective composition. […]
After the 10 days, the cells of the culture were lysed and the melanin content was measured. Specifically, the cells were stained with Fontana Masion Staining and measured with a plate reader. A BCA assay was performed to quantify the protein concentration. […] To eliminate the melanin content caused by increased NHEM cell number in the system, the final melanin level was calculated by dividing the protein content in each culture. […]

[3] = tested on: co-culture models (Normal Human Epidermal Melanocytes and Normal Human Epidermal Keratinocytes); experiment: Melanin synthesis inhibition in co-culture model; assay type: cell-based; details: co-culture on melanocytes and keratinocytes, once a day for 10 days; FIG. 5
Description: as §4, §5

[4] = tested on: single cell culture models (Normal Human Epidermal Melanocytes); experiment: Melanin synthesis inhibition in single cell culture model; assay type: cell-based; details: FIG. 5
Description: as §4, §5

[5] = with 30 nM prostaglandin E2, NHEM
[6] = prostaglandin E2 alone (30 nM), NHEM

Structure (SMILES)	level of P38 MAPK induced by prostaglandin E2 (p38 MAPK; [5])	L-Tyrosine-induced melanin synthesis [1]	level of COX-2 induced by prostaglandin E2 (COX-2; [5])	melanin synthesis after induction by prostaglandin E2 ([2]; with 30 nM prostaglandin E2, once a day for ten days, melanin normalised to protein content)	melanin synthesis [3]	inhibitory effect on melanin synthesis relative to tri-culture ([4]; melanocytes cultures compared with tri-culture)	melanin synthesis ([4]; melanocytes cultures, once a day for 10 days)	p38 MAPK expression (p38 MAPK; [6])	COX-2 expression (COX-2; [6])	melanin production ([2]; prostaglandin E2 alone (30 nM), once a day for ten days)
CC(=O)N(c1cccc(C(F)(F)F)c1)C(C(=O)NCC(=O)O)C(C)C (stereo not shown) [acetyl trifluoromethylphenyl valylglycine]	significantly attenuated	inhibited L-Tyrosine-induced melanin synthesis	significantly attenuated	reduces melanin synthesis	did not appear to inhibit melanin synthesis	less than the observed in the tri-culture	an inhibitory effect was observed	–	–	–
CCCCC[C@H](O)/C=C/[C@H]1[C@H](O)CC(=O)[C@@H]1C/C=C\CCCC(=O)O [prostaglandin E2, reference compound]	–	–	–	–	–	–	–	triggered the cascade	triggered the cascade	stimulates melanin production
